Assay results from patent US7183267B2, “β-lactamase inhibitors and methods of use thereof” (priority 2003, dated 2007).

Tests used:
[1] = target: β-lactamase wt (Escherichia coli, UniProt P62593); test: Isothermal titration calorimetry, binding enthalpy, wild type
Protocol: (§1) The binding of the compounds of the present invention to β-lactamase was also measured by isothermal titration calorimetry.
(§2) These experiments, in combination with the inhibition assays, indicate that the compounds identified in this disclosure bind to the wild type as well as drug resistant beta lactamases with favorable binding enthalpies. This is a very important characteristic from the point of view of further optimization since it facilitates the achievement of extremely high affinities and low susceptibilities to drug resistant mutations and naturally occurring polymorphisms.
(§3) Isothermal titration calorimetry was performed on a high-precision VP-ITC titration calorimeter (Microcal Inc., Northampton, Mass.). β-Lactamase solutions were titrated with inhibitors in 50 mM sodium phosphate, 2% DMSO, pH 7.0, with β-lactamase concentrations ranging from 15 to 25 μM and inhibitor concentrations ranging from 300 to 1000 μM. The heat evolved from each injection was obtained by integrating the calorimetric signal. Heat of binding was obtained as the difference between the heat of reaction and the heat of inhibitor dilution. Data were analyzed using Origin 7.0 (OriginLab Corporation, Northampton, Mass.).

[2] = target: β-lactamase mutant M69I (Escherichia coli, UniProt P62593, M67I); type: biochemical; conditions: number higher than 1 reflects a loss of potency against mutant
[3] = target: β-lactamase mutant R244S (Escherichia coli, UniProt P62593, R241S); type: biochemical; conditions: number higher than 1 reflects a loss of potency against mutant
[4] = target: β-lactamase M69I (Escherichia coli, UniProt P62593, M67I); test: Isothermal titration calorimetry, binding enthalpy, M69I mutant
Protocol: as §1, §2, §3

[5] = target: β-lactamase E104K (Escherichia coli, UniProt P62593, E102K); test: Isothermal titration calorimetry, binding enthalpy, E104K mutant
Protocol: as §1, §2, §3

[6] = target: T1, AmpC β-lactamase (Escherichia coli, UniProt P00811); conditions: binding to AmpC; ITC
T1 construct: made in house; host or cells: E. coli BL21 (DE3)
T1 sequence (P00811 20-377): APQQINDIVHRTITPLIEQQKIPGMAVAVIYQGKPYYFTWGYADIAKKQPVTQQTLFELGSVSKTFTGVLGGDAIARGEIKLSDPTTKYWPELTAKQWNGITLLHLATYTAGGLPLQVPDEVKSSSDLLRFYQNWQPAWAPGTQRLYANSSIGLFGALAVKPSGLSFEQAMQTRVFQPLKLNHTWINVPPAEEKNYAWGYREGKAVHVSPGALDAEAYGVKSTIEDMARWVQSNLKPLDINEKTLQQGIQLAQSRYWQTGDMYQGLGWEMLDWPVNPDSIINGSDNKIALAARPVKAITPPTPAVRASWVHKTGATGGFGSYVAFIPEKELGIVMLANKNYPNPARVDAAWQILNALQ
Protocol: as §3
Isothermal titration calorimetry was undertaken to determine the thermodynamic characteristics of binding to AmpC β-lactamase.

[7] = target: T1, AmpC β-lactamase; test: AmpC β-lactamase competitive inhibition assay (nitrocefin hydrolysis); type: biochemical
Protocol: The gene for AmpC β-lactamase (accession number P00811) was obtained from Escherichia coli K12 strain W3110 (American Type Culture Collection, Rockville Md.). E. coli was grown and plasmid (F-lacIq lacPL8 ampC::lambdacI+) was isolated via Qiagen (Valencia, Calif.) mini prep. The gene for AmpC was amplified in two pieces via polymerase chain reaction, ligated and purified by agarose gel electrophoresis. The ligated gene was inserted into a pET200 vector via a TOPO reaction (Invitrogen, Carlsbad, Calif.).
BL21 (DE3) (Invitrogen) cells were transformed by heat-shock with the prepared plasmid. These cells were grown to an OD600 of 0.8 at 37° C. Isopropylthiogalactoside (IPTG) was added to 1 mM, incubation temperature decreased to 25° C. and the cells were grown for an additional 18 hours. After 18 hours, the E. coli was pelleted by centrifugation, and discarded. The growth media was concentrated and dialyzed versus 100 mM Tris, pH 7.0. This solution was run through an equilibrated Q-resin column, and washed with excess 100 mM Tris, pH 7.0.
The competitive inhibition of β-lactamase was determined spectrophotometrically using a Varian (Walnut Creek, Calif.) Cary 100 UV-Visible spectrophotometer. β-lactamase activity was followed by measuring the hydrolysis of nitrocefin, [3-(2,4-dinitrostyryl)-(6R, 7R)-7-(2-thienylacetamido)-ceph-3-em-4-carboxylic acid, E-isomer], (Calbiochem, San Diego, Calif.) at 486 nm. Inhibition assays were performed at 25° C. in 50 mM sodium phosphate, 5% DMSO, pH 7.0. […] Penicillin G (Sigma, St. Louis, Mo.) was also used as a substrate to determine KM and kcat.
Inhibitor was added to protein and incubated for ten minutes before the addition of substrate. Inhibition constants were determined by measuring the loss of P-lactamase activity with increasing inhibitor concentrations and fitting the data to standard equations for competitive inhibition.

SMILES: O=C(OCc1ccccc1)c1cc(B(O)O)cc([N+](=O)[O-])c1 [Compound F1201]
- ΔH wt [1]: -3.2 kcal/mol
- Loss of potency: ratio of the inhibitory constant between mutant and wild type (Potencywt/Potencymutant), M69I [2]: 0.52
- Loss of potency: ratio of the inhibitory constant between mutant and wild type (Potencywt/Potencymutant), R244S [3]: 0.86
- ΔH M69I [4]: -2.4 kcal/mol
- ΔH E104K [5]: -3.5 kcal/mol
- ΔG [6]: -6.566 kcal/mol
- ΔH [6]: -5.084 kcal/mol
- −TΔS [6]: -1.482 kcal/mol
- Ki [7]: 4.45 µM
